Measurements reported in patent US20250221410A1, “SUBSTITUTED 2-C-AZINES AND SALTS THEREOF, AND USE THEREOF AS HERBICIDAL ACTIVE SUBSTANCES” (BAYER AKTIENGESELLSCHAFT, priority 2022, published 2025).

Key:
Type in all cases: in vivo
[1] = test system: DIGSA: Digitaria sanguinalis; assay: Pre-emergence herbicide efficacy at 1280 g/ha, DIGSA; conditions: visual scoring after about 3 weeks vs untreated controls
Outline: (§1)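 Compound applied pre-emergence in WP or EC form to the covering soil over sown seeds, in aqueous spray with 0.5% additive (600 L/ha water). After greenhouse culture for about 3 weeks, damage is rated visually from 0% (as control) to 100% (plants dead).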

[2] = test system: SETVI: Setaria viridis; assay: Post-emergence herbicidal efficacy at 1280 g/ha, SETVI; conditions: visual rating about 3 weeks after treatment vs untreated controls
Outline: (§2)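 Visual damage rating was made roughly 3 weeks after treatment, relative to untreated plants, on a scale where 0% means no effect and 100% means plants died. Foliar application was at the one-leaf stage as an aqueous WP/EC spray with 0.5% additive at 600 L/ha water, on greenhouse-grown pot plants.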

[3] = test system: VERPE: Veronica persica; assay: Pre-emergence herbicide efficacy at 1280 g/ha, VERPE; conditions: visual scoring vs untreated controls
Outline: as §1

[4] = test system: STEME: Stellaria media; assay: Post-emergence herbicidal efficacy at 1280 g/ha, STEME; conditions: visual rating about 3 weeks after treatment vs untreated controls
Outline: as §2

[5] = test system: ABUTH: Abutilon theophrasti; assay: Post-emergence herbicidal efficacy at 1280 g/ha, ABUTH; conditions: rated visually after about 3 weeks vs untreated controls, 100% = plants have died, 0% = like control plants
Outline: as §2

[6] = test system: AMARE: Amaranthus retroflexus; assay: Pre-emergence herbicide efficacy at 80 g/ha, AMARE; conditions: scored visually after about 3 weeks
Text: (§3) Seeds of monocotyledonous and dicotyledonous weed plants and crop plants were placed in plastic or organic planting pots and covered with soil. The compounds of the invention, formulated in the form of wettable powders (WP) or as emulsion concentrates (EC), were then applied to the surface of the covering soil as aqueous suspension or emulsion with addition of 0.5% additive at a water application rate equivalent to 600 l/ha. After the treatment, the pots were placed in a greenhouse and kept under good growth conditions for the test plants. After about 3 weeks, the efficacy of the preparations was scored visually in comparison with untreated controls as percentages. For example, 100% activity=the plants have died, 0% activity=like control plants. Tables D1 to D12 below show the effects of selected compounds of the general formula (I) according to Table 1 on various harmful plants and an application rate corresponding to 80 g/ha, which were obtained by the experimental procedure mentioned above.

[7] = test system: VERPE: Veronica persica; assay: Post-emergence herbicidal efficacy at 1280 g/ha, VERPE; conditions: visual rating about 3 weeks after treatment vs untreated controls
Outline: as §2

[8] = test system: SETVI: Setaria viridis; assay: Pre-emergence herbicide efficacy at 1280 g/ha, SETVI; conditions: visual scoring vs untreated controls
Outline: as §1

[9] = test system: DIGSA: Digitaria sanguinalis; assay: Post-emergence herbicidal efficacy at 1280 g/ha, DIGSA; conditions: rated visually after about 3 weeks vs untreated controls, 100% = plants have died, 0% = like control plants
Outline: as §2

[10] = test system: STEME: Stellaria media; assay: Pre-emergence herbicide efficacy at 1280 g/ha, STEME; conditions: visual scoring vs untreated controls
Outline: as §1

[11] = test system: ECHCG: Echinochloa crus-galli; assay: Pre-emergence herbicide efficacy at 1280 g/ha, ECHCG; conditions: visual scoring after about 3 weeks vs untreated controls
Outline: as §1

[12] = test system: KCHSC: Kochia scoparia; assay: Pre-emergence herbicide efficacy at 1280 g/ha, KCHSC; conditions: visual scoring after about 3 weeks vs untreated controls
Outline: as §1

[13] = test system: AMARE: Amaranthus retroflexus; assay: Post-emergence herbicidal efficacy at 1280 g/ha, AMARE; conditions: rated visually after about 3 weeks vs untreated controls, 100% = plants have died, 0% = like control plants
Outline: as §2

[14] = test system: POAAN: Poa annua; assay: Pre-emergence herbicide efficacy at 1280 g/ha, POAAN; conditions: visual scoring after about 3 weeks vs untreated controls
Outline: as §1

[15] = test system: POAAN: Poa annua; assay: Post-emergence herbicidal efficacy at 1280 g/ha, POAAN; conditions: visual rating about 3 weeks after treatment vs untreated controls
Outline: as §2

[16] = test system: KCHSC: Kochia scoparia; assay: Post-emergence herbicidal efficacy at 1280 g/ha, KCHSC; conditions: visual rating about 3 weeks after treatment vs untreated controls
Outline: as §2

[17] = test system: AMARE: Amaranthus retroflexus; assay: Pre-emergence herbicide efficacy at 1280 g/ha, AMARE; conditions: visual scoring after about 3 weeks vs untreated controls
Outline: as §1

[18] = test system: LOLRI: Lolium rigidum; assay: Pre-emergence herbicide efficacy at 1280 g/ha, LOLRI; conditions: visual scoring after about 3 weeks vs untreated controls
Text: (§4) Seeds of mono- and dicotyledonous weed plants were placed in plastic pots in sandy loam soil (doubly sown with one species each of mono- or dicotyledonous weed plants per pot) and covered with soil. The compounds of the invention, formulated in the form of wettable powders (WP) or as emulsion concentrates (EC), were then applied to the surface of the covering soil as aqueous suspension or emulsion with addition of 0.5% additive at a water application rate of 600 litres per hectare (converted). After the treatment, the pots were placed in a greenhouse and kept under good growth conditions for the test plants. After about 3 weeks, the efficacy of the preparations was scored visually in comparison with untreated controls as percentages. For example, 100% activity=the plants have died, 0% activity=like control plants. Tables C1 to C12 below show the effects of selected compounds of the general formula (I) according to Table 1 on various harmful plants and at an application rate corresponding to 1280 g/ha, which were obtained by the trial procedure specified above.

[19] = test system: MATIN: Matricaria inodora; assay: Pre-emergence herbicide efficacy at 1280 g/ha, MATIN; conditions: visual scoring after about 3 weeks vs untreated controls
Text: as §4

[20] = test system: ABUTH: Abutilon theophrasti; assay: Pre-emergence herbicide efficacy at 1280 g/ha, ABUTH; conditions: visual scoring after about 3 weeks vs untreated controls
Outline: as §1

[21] = test system: VERPE: Veronica persica; assay: Pre-emergence herbicide efficacy at 80 g/ha, VERPE; conditions: scored visually after about 3 weeks
Text: as §3

[22] = test system: VERPE: Veronica persica; assay: Post-emergence herbicidal efficacy at 80 g/ha, VERPE; conditions: visual rating about 3 weeks after treatment vs untreated controls
Procedure: (§5) Seeds of monocotyledonous and dicotyledonous weeds and crop plants were placed in sandy loam in plastic or organic planting pots, covered with soil and cultivated in a greenhouse under controlled growth conditions. 2 to 3 weeks after sowing, the test plants were treated at the one-leaf stage. The compounds of the invention, formulated in the form of wettable powders (WP) or as emulsion concentrates (EC), were then sprayed onto the green parts of the plants as aqueous suspension or emulsion with addition of 0.5% additive at a water application rate of 600 l/ha (converted). After the test plants had been kept in the greenhouse under optimum growth conditions for about 3 weeks, the activity of the preparations was rated visually in comparison to untreated controls. For example, 100% activity=the plants have died, 0% activity=like control plants. Tables B1 to B10 below show the effects of selected compounds of the general formula (I) according to Table 1 on various harmful plants and an application rate corresponding to 80 g/ha, which were obtained by the experimental procedure mentioned above.

[23] = test system: AMARE: Amaranthus retroflexus; assay: Post-emergence herbicidal efficacy at 80 g/ha, AMARE; conditions: visual rating about 3 weeks after treatment vs untreated controls
Procedure: as §5

[24] = test system: ECHCG: Echinochloa crus-galli; assay: Post-emergence herbicidal efficacy at 1280 g/ha, ECHCG; conditions: rated visually after about 3 weeks vs untreated controls, 100% = plants have died, 0% = like control plants
Outline: as §2

[25] = test system: ALOMY: Alopecurus myosuroides; assay: Pre-emergence herbicide efficacy at 1280 g/ha, ALOMY; conditions: visual scoring after about 3 weeks vs untreated controls
Text: as §4

[26] = test system: VIOTR: Viola tricolor; assay: Post-emergence herbicidal efficacy at 80 g/ha, VIOTR; conditions: visual rating about 3 weeks after treatment vs untreated controls
Procedure: as §5

[27] = test system: ABUTH: Abutilon theophrasti; assay: Pre-emergence herbicide efficacy at 80 g/ha, ABUTH; conditions: scored visually after about 3 weeks
Text: as §3

Row | Structure (SMILES) | Pre-emergence efficacy against DIGSA [1] | Post-emergence efficacy against SETVI [2] | Pre-emergence efficacy against VERPE in % [3] | Post-emergence efficacy against STEME [4] | Post-emergence efficacy at 1280 g/ha against ABUTH in % [5] | Pre-emergence efficacy against AMARE in % [6] | Post-emergence efficacy against VERPE [7] | Pre-emergence efficacy against SETVI in % [8] | Post-emergence efficacy at 1280 g/ha against DIGSA in % [9] | Pre-emergence efficacy against STEME in % [10] | Pre-emergence efficacy against ECHCG [11] | Pre-emergence efficacy against KCHSC [12] | Post-emergence efficacy at 1280 g/ha against AMARE in % [13] | Pre-emergence efficacy against POAAN [14] | Post-emergence efficacy against POAAN [15] | Post-emergence efficacy against KCHSC [16] | Pre-emergence efficacy against AMARE [17] | Pre-emergence efficacy against LOLRI [18] | Pre-emergence efficacy against MATIN [19] | Pre-emergence efficacy against ABUTH [20] | also measured
1 | N#Cc1cccc(Cc2ncc(Cl)cn2)c1-n1cc(C(F)(F)F)cn1 [Example 1-45] | 100% | 90% | 100% | 90% | 90% | 100% | 100% | 100% | 90% | 100% | 100% | 100% | 100% | 90% | 90% | 100% | 100% | 90% | 90% | 100% | –
2 | Fc1cccc(Oc2ncc(Cl)cn2)c1Cc1ncc(Cl)cn1 [Example 1-51] | 100% | – | 100% | – | – | 90% | 100% | 100% | – | 100% | 90% | 100% | 100% | 90% | – | 90% | 100% | – | 100% | 100% | Pre-emergence efficacy against VERPE in % [21]: 80%; Post-emergence efficacy against VERPE [22]: 100%; Post-emergence efficacy against AMARE [23]: 100%
3 | Clc1cnc(Cc2c(Br)cccc2Oc2ncc(Cl)cn2)nc1 [Example 1-53] | 100% | 100% | 100% | 100% | 100% | – | 100% | 100% | 90% | 100% | 100% | 100% | 100% | 100% | 100% | 100% | 100% | 100% | 100% | 100% | Post-emergence efficacy at 1280 g/ha against ECHCG in % [24]: 100%; Pre-emergence efficacy against ALOMY [25]: 100%
4 | Fc1cnc(Oc2cccc(Cl)c2Cc2ncc(Cl)cn2)nc1 [Example 1-57] | 100% | 90% | 100% | 90% | 90% | – | 90% | 100% | 90% | 100% | 100% | 100% | 90% | 100% | 90% | 90% | 100% | 100% | 100% | 100% | Post-emergence efficacy at 1280 g/ha against ECHCG in % [24]: 90%; Pre-emergence efficacy against ALOMY [25]: 100%
5 | Fc1ccc(Oc2ccccc2Cc2ncc(F)cn2)cc1 [Example 1-67] | – | – | – | – | – | 90% | – | – | – | – | – | – | – | – | – | – | – | – | – | – | Post-emergence efficacy against VIOTR [26]: 100%; Post-emergence efficacy against VERPE [22]: 80%; Pre-emergence efficacy against ABUTH in % [27]: 100%; Post-emergence efficacy against AMARE [23]: 100%
